Test results taken from US7521535B2, “Anti-microbial defensin-related peptides and methods of use” (priority 2006, dated 2009).
Entries after “also recorded” stand apart in the source; their conditions may differ. Positions of bridges follow the written chain, without caps; N, C: chain ends. Chains are numbered I, II in the order given. No end group written: not given here.

Legend:
S. aureus [1] = test: effect of Mg2+ on antibacterial activity; format: cell-based, Staphylococcus aureus; settings: 2 μM peptide, 0, 1, 2 and 5 mM MgCl2, 4 h
Experimental: (§1) FIG. 7. Effect of Mg^2+ on the antibacterial activity of rattusin and cryptdin-4 against S. aureus (A) and E. coli O157:H7 (B). S. aureus or E. coli were incubated with rattusin, cryptdin-4, or an equal volume of 0.01% acetic acid (no peptide) in 25 mM sodium phosphate buffer, containing 1% TSB with 0, 1, 2 and 5 mM MgCl2, pH 7.4, for 4 h. Surviving bacteria were plated and counted. Both peptides were used at identical concentrations for each bacterial strain (2 and 4 μM against S. aureus and E. coli, respectively). Data shown are means ± SEM of 2-3 independent experiments.
(§2) The effect of Mg^2+ on the antibacterial activity was studied by incubating rattusin and cryptdin-4 for 4 h with 90 μl of 5×10^5 CFU/ml Staphylococcus aureus at a concentration of 2 μM each or with E. coli O157:H7 at a concentration of 4 μM each in 1% TSB, 25 mM sodium phosphate buffer, containing 0, 1, 2 and 5 mM of MgCl2, pH 7.4.

E. coli O157:H7 [2] = test: effect of salinity on antibacterial activity; format: cell-based; settings: 4 μM peptide, 4 h, up to 200 mM NaCl
Experimental: (§3) FIG. 6. Effect of salinity on the antibacterial activity of rattusin against S. aureus (A) and E. coli O157:H7 (B). S. aureus and E. coli were incubated with 2 and 4 μM of rattusin, or an equal volume of 0.01% acetic acid (no peptide) in 25 mM sodium phosphate buffer, pH 7.4, 1% TSB with increasing concentrations of NaCl, for 4 h. Surviving bacteria were plated and counted. Data shown are means ± SEM of two independent experiments.

S. aureus [3] = test: effect of salinity on antibacterial activity; format: cell-based; settings: 2 μM peptide, 4 h, up to 200 mM NaCl
Experimental: as §3

[4] = system: representative Gram-positive and Gram-negative bacteria; test: modified broth microdilution assay, summary over strains; format: cell-based; settings: 100 mM NaCl versus no NaCl
Experimental: All bacterial strains were purchased from either MicroBiologics (St. Cloud, Minn.) or ATCC (Manassas, Va.). Bacteria were grown in trypticase soy broth (TSB) overnight and subcultured in the same broth for 3-4 h at 37° C. in a shaking incubator to the mid log phase. To study the antibacterial spectrum, a modified broth microdilution assay was used as described (26). Briefly, the mid log phase bacteria were washed with 25 mM sodium phosphate buffer, pH 7.4, and suspended in 5% TSB in 25 mM sodium phosphate, pH 7.4, to 5×10^5 CFU/ml with and without 100 mM NaCl. Bacteria (90 μl) were then dispensed in a 96-well plate, followed by addition of peptides (10 μl) serially diluted in 0.01% acetic acid. After overnight incubation at 37° C., the minimum inhibitory concentration (MIC) of each peptide was determined as the lowest concentration that gave no visible bacterial growth.
Refolded rattusin was then used to study its antibacterial activity against representative Gram-positive and Gram-negative bacteria by a modified broth microdilution assay with and without 100 mM NaCl.

S. aureus ATCC 25923 = test: kinetics of bacterial killing, colony counting assay; format: cell-based, Staphylococcus aureus; settings: 2 μM peptide
Experimental: (§4) FIG. 5. Kinetics of killing of S. aureus in the absence (A) and presence (B) of 100 mM NaCl by rattusin, cryptdin-4 and HD-5. S. aureus ATCC 25923 was incubated with 2 μM rattusin, cryptdin-4, HD-5, or an equal volume of 0.01% acetic acid (no peptide) in duplicate in 25 mM sodium phosphate buffer, pH 7.4, 1% TSB with and without 100 mM NaCl for 10, 30, 60, 120 and 240 min. Surviving bacteria were plated and counted. Data shown are means ± SEM of two independent experiments.
(§5) To study the kinetics of bacterial killing, a standard colony counting assay was used as described (26). Rattusin and cryptin-4 were incubated with 90 μl of 5×10^5 CFU/ml Staphylococcus aureus ATCC 25923 at the concentration of 2 μM each or with E. coli O157:H7 at the concentration of 4 μM each in 25 mM sodium phosphate buffer, pH 7.4, with and without 100 mM NaCl. The reaction was incubated at 37° C. for 10, 30, 60, 120 and 240 min and diluted rapidly with ice-cold PBS and plated immediately. Plates were incubated at 37° C. for 14-18 hours and viable bacteria were counted.

Caco-2 cells = test: cytotoxicity assay, alamarBlue dye; format: cell-based, human; settings: 100 μM peptide, 24 h, DMEM with and without 10% FBS
Experimental: FIG. 8. Absence of cytotoxicity of rattusin and cryptdin-4 to Caco-2 cells. Cells were incubated with 100 μM of rattusin, cryptdin-4 or fowlicidin-1 for 24 h in DMEM with and without 10% fetal bovine serum for 24 hours. Cell viability was measured with an alamarBlue dye-based method. Data are representative of two independent experiments done in duplicate.
Cytotoxicity against human colon adenocarcinoma (CACO-2) cell line (ATCC, Manassas, Va.) was measured using alamarBlue dye (Biosource, Camarillo, Calif.) as described previously (26, 27). Briefly, CACO-2 cells were seeded into 96 well plate at 5×10^4 in Dulbecco's modified Eagle's medium (DMEM) with 10% FBS and were grown overnight. The next day cells were washed once with DMEM followed by the addition of fresh DMEM with and without 10% FBS and 100 μM of rattusin or cryptdin-4 or fowlicidin-1. […] The plate was read with excitation at 545 nm and emission at 590 nm. The percentage of cell death was calculated as [1−(Fpeptide−Fbackground)/(Facetic acid−Fbackground)]×100, where Fpeptide is the fluorescence of cells exposed to 100 μM peptide, Facetic acid is the fluorescence of cells exposed to 0.01% acetic acid only, and Fbackground is the background fluorescence of 10% alamarBlue dye in cell culture medium without cells.

E. coli O157:H7 [5] = test: effect of Mg2+ on antibacterial activity; format: cell-based; settings: 4 μM peptide, 0, 1, 2 and 5 mM MgCl2, 4 h
Experimental: as §1, §2

[6] = system: E. coli O157:H7 ATCC 700728; test: kinetics of bacterial killing, colony counting assay; format: cell-based; settings: 4 μM peptide; for killing of E. coli: no NaCl, within 2 h
Experimental: as §4, with “FIG. 4.” for “FIG. 5.”, “of E. coli O157:H7” for “of S. aureus”, “HD-5. E. coli O157:H7” for “HD-5. S. aureus”, “ATCC 700728” for “ATCC 25923”, “with 4” for “with 2”
as §5

bacteria = test: preliminary antibacterial studies, reduced versus refolded rattusin; format: cell-based; settings: data not shown
From the text: Similar to several α- and β-defensins (49-52), the central cysteine-rich motif of rattusin is flanked by long flexible N- and C-terminal tails, which are primarily composed of charged and uncharged polar residues (Table 2). The impact of N- and C-terminal tails and five cysteines of rattusin on its antibacterial, cytotoxic, chemotactic, and immuno-modulatory functions is investigated.

Row | Molecule | effect of Mg2+ on activity against S. aureus (S. aureus [1]) | antibacterial activity with increasing concentrations of NaCl (E. coli O157:H7 [2]) | antibacterial activity with increasing concentrations of NaCl (S. aureus [3]) | antibacterial activity in the presence of 100 mM NaCl [4] | killing of S. aureus in the presence of 100 mM NaCl (S. aureus ATCC 25923) | cytotoxicity to Caco-2 cells (Caco-2 cells) | activity against E. coli in the presence of MgCl2 (E. coli O157:H7 [5]) | killing of E. coli in the presence of 100 mM NaCl [6] | killing of E. coli [6] | antibacterial activity in high salt (bacteria)
1 | I: LRVRRTLQCSCRRVCRNTCSCIRLSRSTYAS / II: LRVRRTLQCSCRRVCRNTCSCIRLSRSTYAS (disulfide I:9-II:21, I:11-II:19, I:15-II:15, I:19-II:11, I:21-II:9) [Rattusin] | did not inhibit; also recorded: potentiated | maintained antibacterial activity | maintained antibacterial activity | remained largely unchanged | largely unaffected | no cytotoxicity | largely unaffected | slightly delayed with a complete killing occurring at 4 h | three logs | 
2 | LRVRRTLQCSCRRVCRNTCSCIRLSRSTYAS [reduced peptide, rattusin in the reduced form, without disulfide bonds] |  |  |  |  |  |  |  |  |  | lost significant activities
3 | HD-5 (peptide, UniProt Q01523 20-94, looked up, Defensin-5) Defensin alpha 5: ESLQERADEATTQKQSGEDNQDLAISFAGNGLSALRTSGSQARATCYCRTGRCATRESLSGVCEISGRLYRLCCR |  |  |  |  | significantly inhibited |  |  | completely inactivated | three logs | 
